Measured values reported in patent US20160222014A1, “COMPOUNDS FOR REGULATING FAK AND/OR SRC PATHWAYS” (ASANA BIOSCIENCES, LLC, priority 2013, published 2016).

Columns and labels:
JAK2 = JAK2 (Homo sapiens, UniProt O60674); assay: JAK2 biochemical potency; conditions: read-out: JAK2 HTRF IC50
Phospho Src(Y416) = target: T1, Phospho Src(Y416) (Homo sapiens, UniProt P12931); assay: Phospho Src(Y416) Sandwich ELISA; assay type: cell-based; conditions: Panc1; read-out: pSrc EC50 (μM) Panc1
T1 construct: endogenous in cells; host or cells: Panc1
Procedure: E. Phospho Src(Y416) Sandwich ELISA
Phospho Src(Y416) Sandwich ELISA kit was obtained from Cell Signaling Tech.
(i) Reagent Preparation • 1. All microwell strips were brought to rt before use. • 2. 1× Wash Buffer was prepared by diluting 20× Wash Buffer (included in each PathScan® Sandwich ELISA Kit) in MilliQ® water or equivalently purified water. • 3. 1× Cell Lysis Buffer from CST #9803: 20 mM Tris (pH 7.5), 150 mM NaCl, 1 mM ethylene diamine tetraacetate (EDTA), 1 mM ethylene glycol-bis(2-aminoethyl)-N,N,N′,N′-tetraacetic acid (EGTA), 1% Triton™ X-100, 2.5 mM sodium pyrophosphate, 1 mM b-glycerophosphate, 1 mM Na3VO4, 1 μg/mL leupeptin. This buffer was stored at 4° C. for short-term use (1-2 weeks).
(ii) Preparing Cell Lysates • 1. The media was aspirated. The cells were treated by adding fresh media containing inhibitor for 1 h. The compound of Example 214 was used as reference. • 2. The cells were harvested under non-denaturing conditions by removing media and rinsing cells once with ice-cold PBS. • 3. PBS was removed, 0.5 mL ice-cold 1× Cell Lysis Buffer plus 1 mM phenylmethylsulfonylfluoride (PMSF) was added to each plate (10 cm in diameter) and the plate incubated on ice for 5 min. • 4. The cells were scraped off of the plate, transferred to an appropriate tube, and kept on ice. • 5. The lysates were sonicated on ice. • 6. Microcentrifugation was performed for 10 min at 4° C. and the supernatant transferred to a new tube. The supernatant was the cell lysate and was stored at −80° C. in single-use aliquots.
(iii) Test Procedure • 1. After the microwell strips reached rt, the required number of microwells were broken off. The microwells were placed in the strip holder. Unused microwells were resealed and stored at 4° C. immediately. • 2. 100 μL of Sample Diluent (supplied in each PathScan® Sandwich ELISA Kit, blue color) was added to a micro centrifuge tube. 100 μL of cell lysate was transferred into the tube and vortexed for a few seconds. […] Individual data sheets for each kit provided information regarding an appropriate dilution factor for lysates and kit assay results. However, dilution factors were titrated when specific cell lysates are used. • 3. 100 μL of each diluted cell lysate were added to the appropriate well. It was then sealed with tape and pressed firmly onto top of microwells. The plate was incubated for 2 h at 37° C. Alternatively, the plate was incubated overnight at 4° C., which gave the best detection of target protein. • 4. The tape was gently removed and the wells washed: • a. The plate contents were discarded into a receptacle. • b. Each well was washed 4 times with 1× Wash Buffer, 200 μL. • c. For each wash, plates were struck on fresh towels hard enough to remove the residual solution in each well, but wells were not allowed to completely dry at any time. • d. The underside of all wells was cleaned with a lint-free tissue. • 5. 100 μL of Detection Antibody (green color) was added to each well, sealed with tape and the plate incubated for 1 h at 37° C. • 6. The wash procedure was repeated as in Step 4. • 7. 100 μL of HRP-linked secondary antibody (red color) was added to each well, sealed with tape and the plate incubated plate for 30 min at 37° C. • 8. The wash procedure was repeated as in Step 4. • 9. 100 μL of TMB Substrate was added to each well, sealed with tape and the plate incubated for 10 min at 37° C. or 30 min at 25° C. • 10. 100 μL of STOP Solution was added to each well and shaken gently for a few seconds. Initial color of positive reaction was blue, which changed to yellow upon addition of STOP Solution. • 11. The results were read. • a. Visual Determination—read within 30 min after adding STOP Solution. • b. Spectrophotometric Determination—the underside of wells were wiped with a lint-free tissue and absorbance read at 450 nm within 30 min after adding STOP Solution.

recombinant human FAK1 = target: T2, recombinant human FAK1 (Homo sapiens, UniProt Q05397); assay: FAK1 HTRF assay; assay type: biochemical
T2 construct: fused on or other part: N-terminal 6xHis tag
Summary of the method: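 His-tagged human FAK1 (residues 692–end, Sf9-expressed), 10 nM final, with 0.5 μM biotinylated gastrin-precursor Tyr87 peptide and a 10 μM final reagent in pH 7.4 buffer, 45 min at rt. Detection used Eu anti-pTyr antibody plus SA-APC (665/620 nm). Compounds top concentration 10 μM; IC50 from % inhibition.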

AURKB (Aurora B) enzyme = target: T3, AURKB (Aurora B) enzyme (Homo sapiens, UniProt Q96GD4); assay: Aurora B HTRF assay; assay type: biochemical; conditions: read-out: AuroraB IC50
T3 construct: purchased Invitrogen PVR 130
Summary of the method: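 HTRF kinase assay with 5 nM Aurora B and 50 nM ULight-PLK (Ser137) peptide, with a reagent at 30 μM final; 1 h at rt. Reaction stopped with EDTA, and phospho-peptide detected with 2 nM Eu-anti-P-PLK(Ser137) antibody after 1 h at rt, read as HTRF.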

[1] = target: T4, FAK phosphorylated at Y397 in HEK-FAK cell line overexpressing human FL FAK protein (Homo sapiens, UniProt Q05397); assay: Cell based assay, Phospho-FAK ELISA; conditions: HEK stb; read-out: pFAK EC50 (μM) HEK stb
T4 construct: expressed in transfected cells
Summary of the method: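 Stable HEK293 line overexpressing full-length human FAK, kept under 0.8 mg/mL Zeocin. In lysates, FAK Y397 autophosphorylation was measured by sandwich ELISA: total-FAK capture antibody, biotinylated pY397-specific detection antibody, streptavidin-HRP with TMB substrate.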

Recombinant Src enzyme = target: T5, Recombinant Src enzyme (Homo sapiens, UniProt P12931); assay: Src HTRF assay; assay type: biochemical
T5 construct: purchased Millipore 14-326; host or cells: Sf21 insect cells
Summary of the method: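 Sf21-expressed recombinant Src at 5 nM final with biotinylated N-terminally tagged Tyk2 peptide substrate at 0.5 μM final; a component freshly made in enzyme assay buffer pH7.4 was used at 10 μM final. Buffer, supplements, compound handling and procedure as in the FAK HTRF assay; dasatinib included.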

[2] = tested on: CSC population in 2 human breast cancer cell lines; conditions: 2 human breast cancer cell lines in vitro and in xenografts; cited from earlier work
[3] = tested on: panel of pancreatic cancer cell lines; conditions: read-out: anti-proliferative IC50; cited from earlier work
[4] = tested on: 4T1 orthotopic breast carcinoma; conditions: cited from earlier work
[5] = tested on: MIA PaCa-2 human pancreatic tumor; conditions: oral administration, cited from earlier work
[6] = tested on: FAK autophosphorylation at Tyrosine397 and Akt phosphorylation at Serine473; conditions: 4T1 breast carcinoma; cited from earlier work
[7] = tested on: prostate and pancreatic cancer xenograft; conditions: prostate and pancreatic cancer xenograft models; cited from earlier work
[8] = tested on: cell proliferation and apoptosis; conditions: cited from earlier work
cell migration = conditions: concomitant with inhibition of focal adhesion turnover; cited from earlier work
[9] = 100 mg/kg intraperitoneal, i.p.; cited from earlier work
[10] = tested on: tumor FAK Tyr-397 phosphorylation; conditions: 100 mg/kg intraperitoneal, i.p.; cited from earlier work

T3 sequence (Q96GD4 whole entry): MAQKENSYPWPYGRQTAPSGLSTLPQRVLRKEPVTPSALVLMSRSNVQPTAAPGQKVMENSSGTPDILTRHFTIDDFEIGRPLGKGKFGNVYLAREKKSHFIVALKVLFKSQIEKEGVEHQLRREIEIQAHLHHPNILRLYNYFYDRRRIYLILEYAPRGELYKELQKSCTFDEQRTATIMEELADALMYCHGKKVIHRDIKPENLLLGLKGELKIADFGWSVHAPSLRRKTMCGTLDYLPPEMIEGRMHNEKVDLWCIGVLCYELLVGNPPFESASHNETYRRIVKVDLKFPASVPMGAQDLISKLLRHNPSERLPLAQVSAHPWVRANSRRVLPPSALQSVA
T4 sequence (Q05397 whole entry): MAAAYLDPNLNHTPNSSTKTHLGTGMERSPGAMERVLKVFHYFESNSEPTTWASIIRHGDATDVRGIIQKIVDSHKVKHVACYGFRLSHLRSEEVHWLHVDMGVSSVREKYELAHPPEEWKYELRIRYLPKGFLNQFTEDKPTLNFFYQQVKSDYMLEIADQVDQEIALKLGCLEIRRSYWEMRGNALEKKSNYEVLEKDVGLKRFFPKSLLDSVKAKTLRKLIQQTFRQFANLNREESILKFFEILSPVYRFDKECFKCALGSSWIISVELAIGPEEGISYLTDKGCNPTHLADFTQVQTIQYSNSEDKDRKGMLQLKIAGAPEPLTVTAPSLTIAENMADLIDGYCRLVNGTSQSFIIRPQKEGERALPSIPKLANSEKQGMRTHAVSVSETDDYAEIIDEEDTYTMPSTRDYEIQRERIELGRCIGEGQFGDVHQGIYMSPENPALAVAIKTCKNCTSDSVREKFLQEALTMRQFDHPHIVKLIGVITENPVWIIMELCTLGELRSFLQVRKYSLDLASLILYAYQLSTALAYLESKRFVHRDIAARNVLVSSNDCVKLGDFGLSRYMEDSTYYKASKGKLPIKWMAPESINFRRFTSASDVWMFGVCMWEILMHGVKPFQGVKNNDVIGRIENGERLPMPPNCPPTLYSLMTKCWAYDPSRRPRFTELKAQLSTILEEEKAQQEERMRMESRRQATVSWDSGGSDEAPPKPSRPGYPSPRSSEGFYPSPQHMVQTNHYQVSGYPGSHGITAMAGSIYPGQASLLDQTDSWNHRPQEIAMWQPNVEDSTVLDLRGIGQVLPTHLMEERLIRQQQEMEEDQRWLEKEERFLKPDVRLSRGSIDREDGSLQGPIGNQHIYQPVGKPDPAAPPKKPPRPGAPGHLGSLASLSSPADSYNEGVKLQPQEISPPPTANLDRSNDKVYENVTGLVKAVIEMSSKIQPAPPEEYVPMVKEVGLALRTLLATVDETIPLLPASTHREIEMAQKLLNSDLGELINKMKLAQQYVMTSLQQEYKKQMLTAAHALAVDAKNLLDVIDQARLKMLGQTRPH
Sequence of JAK2 (O60674 whole entry, species assumed): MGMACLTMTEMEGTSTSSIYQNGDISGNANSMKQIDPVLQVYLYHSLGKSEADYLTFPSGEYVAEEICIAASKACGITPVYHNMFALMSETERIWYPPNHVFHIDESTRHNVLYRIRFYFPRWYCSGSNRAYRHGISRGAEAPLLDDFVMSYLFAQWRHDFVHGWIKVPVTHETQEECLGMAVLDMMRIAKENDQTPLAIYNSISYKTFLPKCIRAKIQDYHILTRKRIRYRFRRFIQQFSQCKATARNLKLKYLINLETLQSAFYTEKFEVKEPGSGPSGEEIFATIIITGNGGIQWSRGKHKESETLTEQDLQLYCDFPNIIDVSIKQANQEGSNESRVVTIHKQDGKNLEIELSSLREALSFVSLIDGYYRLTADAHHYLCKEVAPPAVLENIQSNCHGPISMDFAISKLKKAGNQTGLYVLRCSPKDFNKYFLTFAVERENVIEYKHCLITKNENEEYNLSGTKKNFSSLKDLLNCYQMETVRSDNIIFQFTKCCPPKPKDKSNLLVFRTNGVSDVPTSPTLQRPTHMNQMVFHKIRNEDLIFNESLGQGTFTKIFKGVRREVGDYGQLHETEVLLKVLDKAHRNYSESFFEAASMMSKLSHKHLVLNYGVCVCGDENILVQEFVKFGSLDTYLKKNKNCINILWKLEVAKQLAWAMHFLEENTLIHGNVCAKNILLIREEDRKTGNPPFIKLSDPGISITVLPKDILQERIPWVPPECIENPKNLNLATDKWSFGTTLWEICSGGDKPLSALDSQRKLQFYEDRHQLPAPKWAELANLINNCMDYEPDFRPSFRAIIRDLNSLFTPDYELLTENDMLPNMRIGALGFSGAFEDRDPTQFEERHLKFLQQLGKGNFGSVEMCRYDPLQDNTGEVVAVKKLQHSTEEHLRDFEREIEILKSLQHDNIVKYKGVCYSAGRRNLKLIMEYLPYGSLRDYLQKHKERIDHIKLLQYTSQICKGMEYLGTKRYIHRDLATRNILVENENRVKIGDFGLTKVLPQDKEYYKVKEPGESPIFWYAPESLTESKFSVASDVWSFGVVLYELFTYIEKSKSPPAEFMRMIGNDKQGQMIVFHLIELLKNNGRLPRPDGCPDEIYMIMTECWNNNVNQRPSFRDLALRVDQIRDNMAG
T1 sequence (P12931 whole entry): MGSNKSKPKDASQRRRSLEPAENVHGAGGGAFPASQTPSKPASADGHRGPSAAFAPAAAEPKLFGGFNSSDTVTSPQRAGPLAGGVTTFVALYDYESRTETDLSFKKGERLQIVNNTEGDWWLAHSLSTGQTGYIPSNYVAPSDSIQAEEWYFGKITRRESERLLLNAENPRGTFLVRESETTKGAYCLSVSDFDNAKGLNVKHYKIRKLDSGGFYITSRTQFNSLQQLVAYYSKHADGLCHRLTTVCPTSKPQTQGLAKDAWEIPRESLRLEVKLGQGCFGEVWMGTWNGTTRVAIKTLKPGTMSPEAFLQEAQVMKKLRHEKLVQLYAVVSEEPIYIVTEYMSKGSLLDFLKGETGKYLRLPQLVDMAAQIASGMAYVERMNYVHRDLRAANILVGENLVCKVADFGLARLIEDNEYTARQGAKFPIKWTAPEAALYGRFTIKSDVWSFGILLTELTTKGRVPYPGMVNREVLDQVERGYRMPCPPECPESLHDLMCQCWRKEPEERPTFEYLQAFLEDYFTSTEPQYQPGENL
T2 sequence (Q05397 422-680 limits assumed): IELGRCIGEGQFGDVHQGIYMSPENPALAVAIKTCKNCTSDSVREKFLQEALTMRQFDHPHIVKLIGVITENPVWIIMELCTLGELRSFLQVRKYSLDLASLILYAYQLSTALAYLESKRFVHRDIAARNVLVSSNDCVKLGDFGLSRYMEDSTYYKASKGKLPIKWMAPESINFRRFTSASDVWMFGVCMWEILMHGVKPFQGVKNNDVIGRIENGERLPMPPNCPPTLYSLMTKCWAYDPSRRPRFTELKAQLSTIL
T5 sequence (P12931 whole entry): as the sequence (P12931 whole entry) above

| SMILES | IC50 (JAK2) [nM] | EC50 (Phospho Src(Y416)) [µM] | EC50 [1] [µM] | other results |
| --- | --- | --- | --- | --- |
| CN(c1ccccc1Cn1ccc2cnc(Nc3ccc(C(=O)NCC(C)(C)O)c(F)c3)nc21)S(C)(=O)=O [Example 508] | < 20 | > 1 | > 1 | – |
| CC(C)Cc1ccc([C@@H](C)C(=O)NS(C)(=O)=O)cc1 [Repertaxin] | – | – | – | CSC population [2]: selectively depleted |
| CN(c1ncccc1Cn1ccc2cnc(Nc3cccc(N4CCNCC4)c3)nc21)S(C)(=O)=O [Example 176] | < 20 | > 1 | – | IC50 (AURKB (Aurora B) enzyme): < 20 nM |
| CN(c1ncccc1Cn1ccc2cnc(Nc3ccc(N4CCOCC4)cc3)nc21)S(C)(=O)=O [Example 76] | < 20 | > 1 | – | – |
| CNC(=O)c1ccccc1Nc1nc(Nc2ccc(N3CCOCC3)cc2OC)ncc1Cl [NVP-TAE226] | – | – | – | IC50 [3]: 760 nM; 4T1 murine breast tumor growth and metastasis to the lung ([4]; oral administration, dose-dependent): inhibited; body weight loss ([5]; MIA PaCa-2 model): no body weight loss; MIA PaCa-2 human pancreatic tumor growth [5]: efficiently inhibited; Inhibition of FAK autophosphorylation at Tyrosine397 and Akt phosphorylation at Serine473 [6]: observed in a dose-dependent manner |
| CN(c1ncccc1Cn1ccc2cnc(Nc3ccc(-c4cc[nH]c(=O)c4)cc3)nc21)S(C)(=O)=O [Example 669] | – | > 1 | > 1 | – |
| O=C1CCc2cc(Nc3ncc4ccn(S(=O)(=O)c5ccccc5OC(F)(F)F)c4n3)ccc2N1 [Example 43] | < 20 | > 1 | – | – |
| CN(c1ncccc1CNc1nc(Nc2ccc3c(c2)CC(=O)N3)ncc1C(F)(F)F)S(C)(=O)=O [PF-562,271, N-methyl-N-(3-(((2-((2-oxoindolin-5-yl)amino)-5-(trifluoromethyl)pyrimidin-4-yl)amino)methyl)pyridin-2-yl)methanesulfonamide] | – | – | – | antitumor efficacy [7]: good antitumor efficacy and tumor regression; toxicity [7]: no observed toxicity |
| CN(c1ccccc1Cn1ccc2cnc(Nc3ccc(NC(=O)C(C)(C)O)cc3)nc21)S(C)(=O)=O [Example 452] | – | > 1 | > 1 | – |
| CS(=O)(=O)c1cccc(CNc2nc(Nc3ccc4c(c3)CCC(=O)N4)ncc2C(F)(F)F)c1 [PF-573,228] | – | – | – | effect on cell proliferation and apoptosis [8]: minimal to no effect; chemotactic and haptotactic migration (cell migration): inhibited |
| CNC(=O)c1ccccc1Nc1cc(Nc2ccc(N3CCOCC3)cc2OC)ncc1C(F)(F)F [PND-1186] | – | – | – | syngeneic murine 4T1 orthotopic breast carcinoma tumor growth and spontaneous metastasis to lungs ([4]; mouse, in vivo): significantly inhibited; pharmacokinetics (PK) [9]: promising; duration of inhibition of tumor FAK Tyr-397 phosphorylation [10]: 12 h |

Continued, in another order:

| IC50 (JAK2) [nM] | EC50 (Phospho Src(Y416)) [µM] | EC50 [1] [µM] | SMILES | other results |
| --- | --- | --- | --- | --- |
| < 20 | > 1 | – | CN(c1ncccc1Cn1ccc2cnc(Nc3cccc(NC(=O)C(C)(C)O)c3)nc21)S(C)(=O)=O [Example 79] | – |
| < 20 | > 1 | – | CC(=O)Nc1ccc(Nc2ncc3ccn(S(=O)(=O)c4cccc5cccnc45)c3n2)cc1 [Example 307] | IC50 (recombinant human FAK1): < 20 nM; IC50 (AURKB (Aurora B) enzyme): < 20 nM |
| < 20 | < 0.02 | > 1 | CN(c1ncccc1Cn1ccc2cnc(Nc3ccc(N4CCNCC4)c(F)c3)nc21)S(C)(=O)=O [Example 195] | – |
| – | > 1 | > 1 | Cn1cc(Nc2ncc3ccn(S(=O)(=O)c4ccccc4C#N)c3n2)cn1 [Example 317] | – |
| – | > 1 | – | CN(c1ncccc1Cn1ccc2cnc(Nc3cccc4ncccc34)nc21)S(C)(=O)=O [Example 160] | IC50 (Recombinant Src enzyme): > 1000 nM |
| < 20 | > 1 | – | O=S(=O)(c1cccc2cccnc12)n1ccc2cnc(Nc3ccc(N4CCC(O)CC4)cc3)nc21 [Example 310] | IC50 (recombinant human FAK1): < 20 nM; IC50 (AURKB (Aurora B) enzyme): < 20 nM |
| > 1000 | > 1 | > 1 | N#Cc1ccccc1S(=O)(=O)n1ncc2cnc(Nc3ccc(N4CCNCC4)cc3)cc21 [Example 191] | – |
| – | > 1 | > 1 | CN(c1ncccc1Cn1ccc2cnc(Nc3ccc(N4CCN(C5CC5)CC4)cc3)nc21)S(C)(=O)=O [Example 659] | – |
| – | > 1 | > 1 | CN(c1ncccc1Cn1ccc2cnc(Nc3ccc(N4CCC(CO)CC4)cc3)nc21)S(C)(=O)=O [Example 559] | – |
| < 20 | > 1 | – | O=C1CCc2cc(Nc3ncc4ccn(Cc5ccccc5OC(F)F)c4n3)ccc2N1 [Example 18] | IC50 (AURKB (Aurora B) enzyme): < 20 nM |
| < 20 | > 1 | – | CN(c1ccccc1Cn1ccc2cnc(Nc3ccc4c(c3)CC(=O)N4)nc21)S(C)(=O)=O [Example 513] | IC50 (recombinant human FAK1): < 20 nM; IC50 (AURKB (Aurora B) enzyme): < 20 nM |
| – | > 1 | – | O=C1CCc2cc(Nc3cc4c(cn3)cnn4Cc3ccccc3OC(F)F)ccc2N1 [Example 65] | IC50 (Recombinant Src enzyme): < 20 nM; IC50 (AURKB (Aurora B) enzyme): > 1000 nM |
| – | > 1 | > 1 | CN(C)C1CN(c2ccc(Nc3ncc4ccn(Cc5cccnc5N(C)S(C)(=O)=O)c4n3)cc2F)C1 [Example 605] | – |
